Measurements published in ChEMBL document CHEMBL1944551, “An integrated computational workflow for efficient and quantitative modeling of renin inhibitors” (Bioorg Med Chem, 2012).

Experiment: physchem
Details: octanol/buffer

| Compound | logP |
| --- | --- |
| CCNCc1ccc(Cl)c(CN(C(=O)[C@H]2CNCC(=O)N2c2cnc(OCCCOCc3ccccc3OC)nc2)C2CC2)c1 | 3.21 |
| CCNCc1ccc(Cl)c(CN(C(=O)[C@H]2CNCC(=O)N2c2ccc(CCCOc3cccc(Cl)c3)cc2)C2CC2)c1 | 6.06 |
| CCNCc1ccc(Cl)c(CN(C(=O)[C@H]2CNCC(=O)N2c2ccc(CCCOc3c(F)ccc(F)c3F)cc2)C2CC2)c1 | 5.89 |
| CCNCCc1ccc(Cl)c(CN(C(=O)[C@H]2CNCC(=O)N2c2ccc(OCCOc3c(Cl)cc(C)cc3Cl)cc2)C2CC2)c1 | 6.08 |
| CCNCCc1ccc(Cl)c(CN(C(=O)[C@H]2CNCC(=O)N2c2ccc(OCCOc3c(Cl)cc(C)cc3Cl)nc2)C2CC2)c1 | 5.25 |
| CCNCCc1ccc(Cl)c(CN(C(=O)[C@H]2CNCC(=O)N2c2ccc(COC(=O)c3ccccc3)cc2)C2CC2)c1 | 4.98 |
| CCNCCc1ccc(Cl)c(CN(C(=O)[C@H]2CNCC(=O)N2c2ccc(OCCCOCc3ccccc3)cc2)C2CC2)c1 | 5.35 |
| CCNCCc1ccc(Cl)c(CN(C(=O)[C@H]2CNCC(=O)N2c2ccc(OCCCOCc3ccccc3OC)cc2)C2CC2)c1 | 5.31 |
| CCNCCc1ccc(Cl)c(CN(C(=O)[C@H]2CNCC(=O)N2c2cnc(OCCCOCc3ccccc3OC)nc2)C2CC2)c1 | 3.3 |
| CCNCCc1ccc(Cl)c(CN(C(=O)[C@H]2CNCC(=O)N2c2ccc(CCCOc3cccc(Cl)c3)cc2)C2CC2)c1 | 6.15 |
| CCNCCc1ccc(Cl)c(CN(C(=O)[C@H]2CNCC(=O)N2c2ccc(CCCOc3c(F)ccc(F)c3F)cc2)C2CC2)c1 | 5.97 |
| Cc1cc(Cl)c(OCCOc2ccc(N3C(=O)CNC[C@@H]3C(=O)N(Cc3cc(CCNCC(F)F)ccc3Cl)C3CC3)cc2)c(Cl)c1 | 6.15 |
| Cc1cc(Cl)c(OCCOc2ccc(N3C(=O)CNC[C@@H]3C(=O)N(Cc3cc(CCNCC(F)F)ccc3Cl)C3CC3)cn2)c(Cl)c1 | 5.33 |
| O=C(OCc1ccc(N2C(=O)CNC[C@@H]2C(=O)N(Cc2cc(CCNCC(F)F)ccc2Cl)C2CC2)cc1)c1ccccc1 | 5.05 |
| O=C([C@H]1CNCC(=O)N1c1ccc(OCCCOCc2ccccc2)cc1)N(Cc1cc(CCNCC(F)F)ccc1Cl)C1CC1 | 5.43 |
| COc1ccccc1COCCCOc1ccc(N2C(=O)CNC[C@@H]2C(=O)N(Cc2cc(CCNCC(F)F)ccc2Cl)C2CC2)cc1 | 5.38 |
| COc1ccccc1COCCCOc1ncc(N2C(=O)CNC[C@@H]2C(=O)N(Cc2cc(CCNCC(F)F)ccc2Cl)C2CC2)cn1 | 3.37 |
| O=C([C@H]1CNCC(=O)N1c1ccc(CCCOc2cccc(Cl)c2)cc1)N(Cc1cc(CCNCC(F)F)ccc1Cl)C1CC1 | 6.22 |
| O=C([C@H]1CNCC(=O)N1c1ccc(CCCOc2c(F)ccc(F)c2F)cc1)N(Cc1cc(CCNCC(F)F)ccc1Cl)C1CC1 | 6.05 |
| Cc1cc(Cl)c(OCCOc2ccc(N3C(=O)CNC[C@@H]3C(=O)N(Cc3cc(CNCCF)ccc3Cl)C3CC3)cc2)c(Cl)c1 | 5.77 |
| Cc1cc(Cl)c(OCCOc2ccc(N3C(=O)CNC[C@@H]3C(=O)N(Cc3cc(CNCCF)ccc3Cl)C3CC3)cn2)c(Cl)c1 | 4.94 |
| O=C(OCc1ccc(N2C(=O)CNC[C@@H]2C(=O)N(Cc2cc(CNCCF)ccc2Cl)C2CC2)cc1)c1ccccc1 | 4.66 |
| O=C([C@H]1CNCC(=O)N1c1ccc(OCCCOCc2ccccc2)cc1)N(Cc1cc(CNCCF)ccc1Cl)C1CC1 | 5.04 |
| COc1ccccc1COCCCOc1ccc(N2C(=O)CNC[C@@H]2C(=O)N(Cc2cc(CNCCF)ccc2Cl)C2CC2)cc1 | 4.99 |
| COc1ccccc1COCCCOc1ncc(N2C(=O)CNC[C@@H]2C(=O)N(Cc2cc(CNCCF)ccc2Cl)C2CC2)cn1 | 2.98 |
| O=C([C@H]1CNCC(=O)N1c1ccc(CCCOc2cccc(Cl)c2)cc1)N(Cc1cc(CNCCF)ccc1Cl)C1CC1 | 5.84 |
| O=C([C@H]1CNCC(=O)N1c1ccc(CCCOc2c(F)ccc(F)c2F)cc1)N(Cc1cc(CNCCF)ccc1Cl)C1CC1 | 5.66 |

| Compound | logP |
| --- | --- |
| Cc1cc(Cl)c(OCCOc2ccc(N3C(=O)CNC[C@@H]3C(=O)N(Cc3cc(CNCC(F)F)ccc3Cl)C3CC3)cc2)c(Cl)c1 | 6.07 |
| Cc1cc(Cl)c(OCCOc2ccc(N3C(=O)CNC[C@@H]3C(=O)N(Cc3cc(CNCC(F)F)ccc3Cl)C3CC3)cn2)c(Cl)c1 | 5.24 |
| O=C(OCc1ccc(N2C(=O)CNC[C@@H]2C(=O)N(Cc2cc(CNCC(F)F)ccc2Cl)C2CC2)cc1)c1ccccc1 | 4.96 |
| O=C([C@H]1CNCC(=O)N1c1ccc(OCCCOCc2ccccc2)cc1)N(Cc1cc(CNCC(F)F)ccc1Cl)C1CC1 | 5.34 |
| Cc1ccccc1Cc1c(C(=O)N2CCNCC2)c2ccccc2n1-c1ccsc1 | 5.02 |
| COCCc1ccc(Cl)c(CN(C(=O)[C@H]2CNCC(=O)N2c2ccc(OCCOc3c(Cl)cc(C)cc3Cl)cc2)C2CC2)c1 | 6.05 |
| COCCc1ccc(Cl)c(CN(C(=O)[C@H]2CNCC(=O)N2c2ccc(OCCOc3c(Cl)cc(C)cc3Cl)nc2)C2CC2)c1 | 5.22 |
| COCCc1ccc(Cl)c(CN(C(=O)[C@H]2CNCC(=O)N2c2ccc(COC(=O)c3ccccc3)cc2)C2CC2)c1 | 4.95 |
| COCCc1ccc(Cl)c(CN(C(=O)[C@H]2CNCC(=O)N2c2ccc(OCCCOCc3ccccc3)cc2)C2CC2)c1 | 5.32 |
| COCCc1ccc(Cl)c(CN(C(=O)[C@H]2CNCC(=O)N2c2ccc(OCCCOCc3ccccc3OC)cc2)C2CC2)c1 | 5.27 |
| COCCc1ccc(Cl)c(CN(C(=O)[C@@H]2CNCC(=O)N2c2cnc(OCCCOCc3ccccc3OC)nc2)C2CC2)c1 | 3.26 |
| COCCc1ccc(Cl)c(CN(C(=O)[C@H]2CNCC(=O)N2c2ccc(CCCOc3cccc(Cl)c3)cc2)C2CC2)c1 | 6.12 |
| COCCc1ccc(Cl)c(CN(C(=O)[C@H]2CNCC(=O)N2c2ccc(CCCOc3c(F)ccc(F)c3F)cc2)C2CC2)c1 | 5.94 |
| CNCc1ccc(Cl)c(CN(C(=O)[C@H]2CNCC(=O)N2c2ccc(OCCOc3c(Cl)cc(C)cc3Cl)cc2)C2CC2)c1 | 5.65 |
| CNCc1ccc(Cl)c(CN(C(=O)[C@H]2CNCC(=O)N2c2ccc(OCCOc3c(Cl)cc(C)cc3Cl)nc2)C2CC2)c1 | 4.82 |
| CNCc1ccc(Cl)c(CN(C(=O)[C@H]2CNCC(=O)N2c2ccc(COC(=O)c3ccccc3)cc2)C2CC2)c1 | 4.55 |
| CNCc1ccc(Cl)c(CN(C(=O)[C@H]2CNCC(=O)N2c2ccc(OCCCOCc3ccccc3)cc2)C2CC2)c1 | 4.92 |
| CNCc1ccc(Cl)c(CN(C(=O)[C@H]2CNCC(=O)N2c2ccc(OCCCOCc3ccccc3OC)cc2)C2CC2)c1 | 4.88 |
| CNCc1ccc(Cl)c(CN(C(=O)[C@@H]2CNCC(=O)N2c2cnc(OCCCOCc3ccccc3OC)nc2)C2CC2)c1 | 2.87 |
| CNCc1ccc(Cl)c(CN(C(=O)[C@H]2CNCC(=O)N2c2ccc(CCCOc3cccc(Cl)c3)cc2)C2CC2)c1 | 5.72 |
| CNCc1ccc(Cl)c(CN(C(=O)[C@H]2CNCC(=O)N2c2ccc(CCCOc3c(F)ccc(F)c3F)cc2)C2CC2)c1 | 5.55 |
| CCNCc1ccc(Cl)c(CN(C(=O)[C@H]2CNCC(=O)N2c2ccc(OCCOc3c(Cl)cc(C)cc3Cl)cc2)C2CC2)c1 | 5.99 |
| CCNCc1ccc(Cl)c(CN(C(=O)[C@H]2CNCC(=O)N2c2ccc(OCCOc3c(Cl)cc(C)cc3Cl)nc2)C2CC2)c1 | 5.16 |
| CCNCc1ccc(Cl)c(CN(C(=O)[C@H]2CNCC(=O)N2c2ccc(COC(=O)c3ccccc3)cc2)C2CC2)c1 | 4.89 |
| CCNCc1ccc(Cl)c(CN(C(=O)[C@H]2CNCC(=O)N2c2ccc(OCCCOCc3ccccc3)cc2)C2CC2)c1 | 5.26 |
| CCNCc1ccc(Cl)c(CN(C(=O)[C@H]2CNCC(=O)N2c2ccc(OCCCOCc3ccccc3OC)cc2)C2CC2)c1 | 5.22 |
